Results as given in ChEMBL document CHEMBL1201862, “PubChem BioAssay data set” (2004).
Activity calls are given as the source filed them.

How the values were obtained:
[1] = target: T1, Hexokinase HKDC1 (Homo sapiens, UniProt Q2TB90); experiment: SAR analysis of small molecule inhibitors of hexokinase domain containing I (HKDC1). [Related pubchem assays (depositor defined):AID493160, AID493190]; type: functional
T1 sequence (Q2TB90 whole entry): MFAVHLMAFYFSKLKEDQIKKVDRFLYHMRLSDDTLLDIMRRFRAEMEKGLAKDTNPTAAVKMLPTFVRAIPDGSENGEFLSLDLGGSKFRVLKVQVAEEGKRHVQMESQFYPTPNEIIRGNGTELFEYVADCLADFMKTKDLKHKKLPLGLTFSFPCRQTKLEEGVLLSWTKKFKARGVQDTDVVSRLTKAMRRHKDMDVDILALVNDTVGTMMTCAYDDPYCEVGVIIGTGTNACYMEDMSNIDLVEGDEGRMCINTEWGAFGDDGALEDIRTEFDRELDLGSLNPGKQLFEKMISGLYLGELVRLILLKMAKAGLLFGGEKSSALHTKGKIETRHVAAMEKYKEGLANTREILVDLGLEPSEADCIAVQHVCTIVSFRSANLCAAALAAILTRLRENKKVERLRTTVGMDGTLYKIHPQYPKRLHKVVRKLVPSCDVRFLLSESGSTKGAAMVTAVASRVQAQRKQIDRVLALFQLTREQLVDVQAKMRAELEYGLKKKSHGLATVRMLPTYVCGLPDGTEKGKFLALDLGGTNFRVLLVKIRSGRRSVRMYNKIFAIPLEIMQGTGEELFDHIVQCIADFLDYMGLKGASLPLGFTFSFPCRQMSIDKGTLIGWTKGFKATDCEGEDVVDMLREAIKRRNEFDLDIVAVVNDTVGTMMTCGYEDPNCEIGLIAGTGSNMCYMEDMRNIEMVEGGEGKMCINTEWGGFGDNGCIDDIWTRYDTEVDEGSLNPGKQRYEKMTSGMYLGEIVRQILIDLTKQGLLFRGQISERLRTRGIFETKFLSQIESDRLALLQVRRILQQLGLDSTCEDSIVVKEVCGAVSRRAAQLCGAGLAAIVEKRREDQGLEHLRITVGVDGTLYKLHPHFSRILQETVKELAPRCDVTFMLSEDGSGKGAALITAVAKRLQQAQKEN

[2] = target: T2, Hexokinase-1 (Homo sapiens, UniProt P19367); experiment: SAR analysis of small molecule inhibitors of hexokinase domain containing I (HKDC1) in the hexokinase 1 selectivity assay. [Related pubchem assays (depositor defined):AID493160, AID493190]; type: functional
T2 sequence (P19367 whole entry): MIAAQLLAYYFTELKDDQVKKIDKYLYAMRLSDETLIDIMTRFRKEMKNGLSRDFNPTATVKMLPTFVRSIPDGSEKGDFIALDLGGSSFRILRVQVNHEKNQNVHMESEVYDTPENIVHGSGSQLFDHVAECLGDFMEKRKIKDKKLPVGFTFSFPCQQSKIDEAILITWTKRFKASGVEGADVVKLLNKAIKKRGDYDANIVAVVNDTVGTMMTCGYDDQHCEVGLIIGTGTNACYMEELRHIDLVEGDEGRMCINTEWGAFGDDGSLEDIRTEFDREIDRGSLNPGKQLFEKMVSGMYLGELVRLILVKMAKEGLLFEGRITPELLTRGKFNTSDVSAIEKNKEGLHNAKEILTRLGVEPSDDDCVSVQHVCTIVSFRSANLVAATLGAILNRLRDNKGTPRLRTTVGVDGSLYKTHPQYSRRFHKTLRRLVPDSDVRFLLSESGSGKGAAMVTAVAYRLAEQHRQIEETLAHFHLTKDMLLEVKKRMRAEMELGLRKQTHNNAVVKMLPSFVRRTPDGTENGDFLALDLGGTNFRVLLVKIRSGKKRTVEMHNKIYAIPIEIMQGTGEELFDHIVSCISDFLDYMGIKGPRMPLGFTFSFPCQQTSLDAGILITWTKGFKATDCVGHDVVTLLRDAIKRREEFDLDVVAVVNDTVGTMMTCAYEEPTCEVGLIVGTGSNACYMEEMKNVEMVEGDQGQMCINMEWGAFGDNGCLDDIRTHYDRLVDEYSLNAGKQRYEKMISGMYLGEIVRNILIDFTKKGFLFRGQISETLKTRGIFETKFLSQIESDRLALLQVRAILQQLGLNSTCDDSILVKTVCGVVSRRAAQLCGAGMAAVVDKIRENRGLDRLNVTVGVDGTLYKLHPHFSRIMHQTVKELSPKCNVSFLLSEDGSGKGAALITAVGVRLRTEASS

[3] = system: Escherichia coli; experiment: microbe, parasite or virus in culture
[4] = target: T3, Protein skinhead-1 (Caenorhabditis elegans, UniProt P34707); type: functional
T3 sequence (P34707 whole entry): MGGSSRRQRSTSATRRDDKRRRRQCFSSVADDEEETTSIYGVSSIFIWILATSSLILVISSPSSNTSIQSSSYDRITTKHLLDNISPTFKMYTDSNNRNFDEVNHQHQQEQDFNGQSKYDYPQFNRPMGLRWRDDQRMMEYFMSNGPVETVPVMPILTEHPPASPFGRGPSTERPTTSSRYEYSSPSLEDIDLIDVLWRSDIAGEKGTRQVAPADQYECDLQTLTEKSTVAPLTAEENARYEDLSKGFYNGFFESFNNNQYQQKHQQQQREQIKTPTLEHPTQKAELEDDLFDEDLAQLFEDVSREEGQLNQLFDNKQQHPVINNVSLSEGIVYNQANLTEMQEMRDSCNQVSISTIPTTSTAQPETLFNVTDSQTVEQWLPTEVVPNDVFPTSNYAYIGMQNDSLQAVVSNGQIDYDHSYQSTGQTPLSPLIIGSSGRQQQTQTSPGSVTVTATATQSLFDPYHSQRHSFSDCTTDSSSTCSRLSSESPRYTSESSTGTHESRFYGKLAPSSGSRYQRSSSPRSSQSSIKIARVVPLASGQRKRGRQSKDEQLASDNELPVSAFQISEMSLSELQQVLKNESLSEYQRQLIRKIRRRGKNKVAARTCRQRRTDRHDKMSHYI

[5] = target: Trypsin (Sus scrofa, UniProt P00761); experiment: trypsin protease activity blockade – biochemical, quenched peptide fluorescence, cherry-pick, selectivity assay for Rce1 protease inhibitor project, dose response (AID 488789)
[6] = target: T4, Acyl-homoserine lactone acylase PvdQ (Pseudomonas aeruginosa (strain LESB58), UniProt Q9I194); experiment: PvdQ acylase enzyme activity blockers – biochemical, fluorescence, plate reader and imaging, cherry-picks, dose response (AID 493231)
T4 sequence (Q9I194 whole entry): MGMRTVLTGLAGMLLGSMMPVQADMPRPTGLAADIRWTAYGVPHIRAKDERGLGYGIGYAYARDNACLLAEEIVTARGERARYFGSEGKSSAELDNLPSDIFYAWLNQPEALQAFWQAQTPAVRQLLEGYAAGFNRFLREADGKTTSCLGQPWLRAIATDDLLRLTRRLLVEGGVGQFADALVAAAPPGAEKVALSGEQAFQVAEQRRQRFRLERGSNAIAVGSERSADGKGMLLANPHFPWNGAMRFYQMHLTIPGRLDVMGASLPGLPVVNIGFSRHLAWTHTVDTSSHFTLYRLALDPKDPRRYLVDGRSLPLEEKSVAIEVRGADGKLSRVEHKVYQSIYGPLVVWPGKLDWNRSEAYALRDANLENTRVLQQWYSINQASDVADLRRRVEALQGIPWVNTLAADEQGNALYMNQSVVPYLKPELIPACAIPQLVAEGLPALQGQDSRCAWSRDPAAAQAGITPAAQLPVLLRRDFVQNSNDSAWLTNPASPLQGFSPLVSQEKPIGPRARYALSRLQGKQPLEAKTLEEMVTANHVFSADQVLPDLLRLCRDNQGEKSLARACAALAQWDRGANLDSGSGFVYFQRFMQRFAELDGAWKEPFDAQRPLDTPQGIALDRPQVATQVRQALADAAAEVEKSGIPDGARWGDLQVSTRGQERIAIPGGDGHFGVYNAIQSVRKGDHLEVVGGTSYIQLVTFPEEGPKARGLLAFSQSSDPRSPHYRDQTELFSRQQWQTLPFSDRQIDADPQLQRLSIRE

[7] = system: HEK293; experiment: EBV LMP1 TES2 canonical NF-kB signalling blockers – cell-based, HEK293, luciferase, cherry-pick, dose response (AID 588343); type: functional; conditions: Homo sapiens
[8] = system: HeLa; experiment: toxicity to human HeLa cells – cell-based, 48 h, plate reader, cherry-picks, cytotoxicity control, dose response (AID 504942); type: functional
[9] = NIH-3T3 fibroblast cytotoxicity, dose response, cytotoxicity control, cell-based, fluorescence, Alamar Blue, secondary assay (AID 2327); type: functional;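 also: NIH-3T3 mouse fibroblasts cultured with fluconazole at 8 µg/mL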
[10] = target: Serine/threonine-protein phosphatase (Candida dubliniensis (strain CD36 / CBS 7987 / NCPF 3949 / NRRLY-17841) (Yeast), UniProt B9W6M3); experiment: blockers of CaCl2-induced CDRE-lacZ signaling – S. cerevisiae, luminescence, secondary, dose response (AID 2388); type: functional, cell-based;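 also: yeast reporter cells carrying a calcineurin-responsive lacZ construct stimulated with calcium chloride; luminescent beta-galactosidase reporter signal in whole cells rather than isolated phosphatase activity; potency for inhibition where a drop in reporter signal means calcineurin blockade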
[11] = target: ATP-dependent molecular chaperone HSP82 (Candida albicans (strain WO-1) (Yeast), UniProt C4YTQ8); experiment: steroid-induced GRE reporter decrease in yeast – S. cerevisiae, luminescence, Hsp90 inhibitor project, dose response (AID 2400); type: functional, cell-based;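 also: beta-galactosidase luminescence from glucocorticoid response element reporter as proxy for Hsp90 function; inhibitor potency where signal loss means Hsp90 inhibition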
[12] = fluconazole-exposed Candida albicans growth modulators – fluorescence, retest, confirmation (AID 2467); type: functional, cell-based
[13] = target: T5, Polyadenylate-binding protein 1 (Homo sapiens, UniProt P11940); experiment: MLLE domain peptide-binding blockers, IC50 – biochemical, fluorescence polarization, FITC-PAM2 peptide, dose response (AID 602259); type: functional; conditions: read-out: IC50_Mean
[14] = system: Streptococcus sp. 'group A'; experiment: Streptococcus pyogenes SK(-)GAS viability under kanamycin – luminescence, BacTiterGlo, confirmation, counter-screen for streptokinase expression inhibitor project, dose response (AID 1900); type: functional, organism-based
[15] = system: Vero; experiment: cells; type: functional; conditions: Chlorocebus sabaeus
[16] = target: T5, Polyadenylate-binding protein 1; experiment: MLLE binding blockers, Cy5 peptide tracer – biochemical, fluorescence polarization, Cy5-PAM2 peptide, secondary, miRNA deadenylation inhibitor project, dose response (AID 602260); type: functional; conditions: read-out: IC50_Mean
[17] = Trypanosoma cruzi growth suppression in host cells – NIH3T3 host cells, beta-gal luminescence, confirmation (AID 2044); type: functional, cell-based;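 also: intracellular parasites grown in NIH/3T3 mouse fibroblasts as host cells; luminescent beta-galactosidase reporter signal from transgenic T. cruzi replicating inside host cells; inhibitors lower the luminescence signal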
[18] = target: Nonstructural protein 1 (Influenza A virus, UniProt Q194T2); type: functional, Influenza A virus (A/California/07/2009(H1N1))
[19] = NIH3T3 cell viability loss – ATP luminescence, mouse fibroblasts, counter-screen, dose response (AID 2010); type: functional, cell-based;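 also: cells exposed to compound for about 90 hours before reading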
[20] = system: BJ; experiment: cells; type: functional, cell-based; conditions: Homo sapiens
[21] = system: Vero; experiment: viability of Vero cells under compound – cytotoxicity control for flavivirus capping enzyme inhibitors (AID 588742); type: functional; conditions: Chlorocebus sabaeus
[22] = system: Streptococcus; experiment: GAS UMAA2166 growth inhibition – luminescence, BacTiterGlo, counter-screen for streptokinase expression inhibitor project, dose response (AID 1915); type: functional, organism-based;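 also: potency for reduction of bacterial viability or growth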
[23] = system: BJ; experiment: BJ-TERT-LT-ST fibroblast viability loss – cell-based, RAS-independent, luminescence, dose response (AID 1935); type: functional; conditions: Homo sapiens;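 also: BJ fibroblasts immortalized with TERT plus LT and ST oncogenes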
[24] = DRD fibroblast viability loss – cell-based, non-viral oncogenic, luminescence, dose response (AID 1934); type: functional; conditions: Homo sapiens
[25] = system: BJ; experiment: BJ-TERT fibroblast viability loss – cell-based, RAS-independent, luminescence, dose response (AID 1933); type: functional; conditions: Homo sapiens

T5 sequence (P11940 whole entry, the tested form may be a part): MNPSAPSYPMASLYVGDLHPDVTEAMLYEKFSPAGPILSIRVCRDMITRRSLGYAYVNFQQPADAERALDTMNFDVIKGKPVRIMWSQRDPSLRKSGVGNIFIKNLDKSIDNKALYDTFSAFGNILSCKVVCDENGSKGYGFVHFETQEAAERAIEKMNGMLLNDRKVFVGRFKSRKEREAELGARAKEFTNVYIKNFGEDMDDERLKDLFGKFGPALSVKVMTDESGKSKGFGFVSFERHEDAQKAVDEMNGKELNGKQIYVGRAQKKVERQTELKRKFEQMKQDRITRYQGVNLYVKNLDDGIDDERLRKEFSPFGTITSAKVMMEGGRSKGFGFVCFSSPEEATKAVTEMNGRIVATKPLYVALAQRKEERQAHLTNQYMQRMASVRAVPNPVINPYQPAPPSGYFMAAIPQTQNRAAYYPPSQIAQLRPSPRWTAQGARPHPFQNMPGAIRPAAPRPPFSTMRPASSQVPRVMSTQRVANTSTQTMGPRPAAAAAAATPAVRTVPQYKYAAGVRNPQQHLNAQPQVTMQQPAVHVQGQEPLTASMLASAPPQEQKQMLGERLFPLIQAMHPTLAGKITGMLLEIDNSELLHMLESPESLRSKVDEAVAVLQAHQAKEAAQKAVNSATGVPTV
Chain of Trypsin (P00761 whole entry): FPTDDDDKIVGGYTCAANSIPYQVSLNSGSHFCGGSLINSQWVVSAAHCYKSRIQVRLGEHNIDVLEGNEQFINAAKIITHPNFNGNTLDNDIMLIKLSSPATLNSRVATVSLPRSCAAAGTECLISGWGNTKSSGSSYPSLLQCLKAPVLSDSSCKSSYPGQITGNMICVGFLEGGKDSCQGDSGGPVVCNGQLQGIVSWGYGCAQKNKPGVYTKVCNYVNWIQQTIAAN
Chain of Serine/threonine-protein phosphatase (B9W6M3 whole entry): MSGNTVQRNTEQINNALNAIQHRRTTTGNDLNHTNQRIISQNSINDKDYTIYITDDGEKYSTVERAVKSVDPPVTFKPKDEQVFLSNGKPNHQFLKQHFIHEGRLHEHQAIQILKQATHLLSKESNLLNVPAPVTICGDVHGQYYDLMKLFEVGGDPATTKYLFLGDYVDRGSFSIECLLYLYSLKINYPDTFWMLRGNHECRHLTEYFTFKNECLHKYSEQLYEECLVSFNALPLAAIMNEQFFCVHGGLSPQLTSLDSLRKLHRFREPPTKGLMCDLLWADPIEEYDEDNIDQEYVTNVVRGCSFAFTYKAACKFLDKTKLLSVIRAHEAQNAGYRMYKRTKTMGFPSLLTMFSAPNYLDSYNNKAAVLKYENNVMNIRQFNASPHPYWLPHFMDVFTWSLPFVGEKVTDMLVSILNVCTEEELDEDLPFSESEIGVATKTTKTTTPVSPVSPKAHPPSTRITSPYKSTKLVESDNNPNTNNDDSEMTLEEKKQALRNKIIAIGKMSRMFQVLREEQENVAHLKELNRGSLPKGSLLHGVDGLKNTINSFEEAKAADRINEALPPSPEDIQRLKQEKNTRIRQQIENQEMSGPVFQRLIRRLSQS
Chain of Nonstructural protein 1 (Q194T2 whole entry): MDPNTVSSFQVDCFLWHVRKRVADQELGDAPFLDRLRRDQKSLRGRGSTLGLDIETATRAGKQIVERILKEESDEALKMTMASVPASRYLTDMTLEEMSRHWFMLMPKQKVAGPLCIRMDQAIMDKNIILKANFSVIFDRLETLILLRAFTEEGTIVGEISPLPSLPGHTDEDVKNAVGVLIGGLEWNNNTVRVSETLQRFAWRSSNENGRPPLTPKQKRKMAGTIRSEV
Chain of ATP-dependent molecular chaperone HSP82 (C4YTQ8 whole entry): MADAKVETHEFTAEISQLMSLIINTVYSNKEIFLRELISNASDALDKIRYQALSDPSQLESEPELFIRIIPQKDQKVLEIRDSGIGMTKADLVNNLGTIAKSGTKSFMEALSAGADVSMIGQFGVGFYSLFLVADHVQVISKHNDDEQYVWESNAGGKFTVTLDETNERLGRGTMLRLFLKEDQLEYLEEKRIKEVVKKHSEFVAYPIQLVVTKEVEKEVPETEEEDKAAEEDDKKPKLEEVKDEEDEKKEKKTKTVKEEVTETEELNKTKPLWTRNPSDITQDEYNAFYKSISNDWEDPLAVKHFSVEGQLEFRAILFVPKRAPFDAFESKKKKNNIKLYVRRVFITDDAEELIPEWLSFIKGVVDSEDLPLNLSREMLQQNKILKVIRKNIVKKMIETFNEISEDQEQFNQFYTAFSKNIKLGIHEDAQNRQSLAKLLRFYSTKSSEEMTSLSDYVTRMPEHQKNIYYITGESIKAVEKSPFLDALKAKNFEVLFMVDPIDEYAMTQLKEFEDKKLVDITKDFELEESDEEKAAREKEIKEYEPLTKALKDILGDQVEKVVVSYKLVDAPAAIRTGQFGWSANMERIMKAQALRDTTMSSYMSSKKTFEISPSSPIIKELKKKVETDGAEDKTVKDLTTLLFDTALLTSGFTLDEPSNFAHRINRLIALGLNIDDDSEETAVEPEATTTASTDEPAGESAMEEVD

O=C(CSc1nc2ccccc2[nH]1)Nc1cccc(S(=O)(=O)N2CCOCC2)c1
IC50 [1]: > 80 µM (inactive) | IC50 [2]: > 80 µM (inactive)

CC(C)(C)CC(=O)Nc1cccc(-c2cn3cccnc3n2)c1
AC50 [3]: 45.2 µM (active)

c1ccn2cc(-c3ccc4c(c3)OCCO4)nc2c1
IC50 [4]: > 100 µM (inactive) | AC50 [5]: 6.17 µM (active) | AC50 [6]: 4.31 µM (active) | AC50 [7]: 1.53 µM (active) | AC50 [8]: 55.2 µM (active)

CCOc1ccc(/C=C/C2=CC(C)(C)NC(S)=N2)cc1
EC50 [9]: 17.1 µM (active) | EC50 [10]: > 180 µM (inactive) | EC50 [11]: > 150 µM (inactive) | EC50 [12]: 1.95 µM (active)

CCc1ccc2c(c1)C1(NN=C(c3ccccc3)S1)C(=O)N2 (stereo not given)
IC50 [13]: > 66 µM (inactive) | EC50 [14]: 0.278 µM (active) | CC50 [15]: 14.9 µM (active) | IC50 [16]: > 66 µM (inactive) | EC50 [17]: 0.524 µM (active) | IC50 [18]: 45.5 µM (active) | EC50 [19]: 5.31 µM (active) | EC50 [20]: 86.3 µM (active) | CC50 [21]: 7.61 µM (active) | EC50 [22]: 1.84 µM (active) | EC50 [23]: 17.7 µM (inconclusive) | EC50 [24]: 49.4 µM (active) | EC50 [25]: 13.7 µM (inconclusive)
